Test results from US11717503B2 (priority 2020, dated 2023).
Values joined by “and” are separate entries in the source; they are usually repeats but may differ in a detail not shown here. Identical values can stand only once.

Key:
Set-up in all cases: species or system C57BL/6 mice
[1] = test system: H7N9 avian influenza virus; details: mouse, in vivo
[2] = test system: H7N9 avian influenza virus; details: mouse, in vivo, po
[3] = test system: H7N9 avian influenza virus; details: mouse, in vivo; remark: listed apart in the source
IL-1β = details: mouse, in vivo, po
IFN-γ = details: mouse, in vivo

Row | Compound | Effect on weight loss caused by H7N9 infection (in words) [1] | Mortality [2] [%] | Number of survivals 15 days post infection [2] | Survival rate [2] [%] | Effect on proliferation of influenza virus in the lungs (in words) [3] | Virus content in the lungs (virus titer) ([3]; po) [log10EID50/ml] | IL-1β content in lung homogenate (IL-1β) | IFN-γ level vs control group (in words) (IFN-γ) | IFN-γ content in lung homogenate (IFN-γ; po)
1 | CC[C@H](C)[C@H](N)C(=O)O [Isoleucine, isoleucine] | did not improve the weight loss | 100 | 0 | 0 | – | – | – | – | –
2 | NCCCC[C@H](N)C(=O)O [Lysine, lysine] | alleviated the weight loss | 90 | 1 | 10 | – | – | – | – | –
3 | CC(C)[C@H](N)C(=O)O [Valine, valine] | alleviated the weight loss | 60 | 4 | 40 | significantly reduce the proliferation | 4.168 ± 0.614 | 691.546 ± 125.531 pg/mL and 512.836 ± 104.971 pg/mL | significantly higher | 121.927 ± 10.241 pg/mL and 108.583 ± 10.700 pg/mL
